# Biological target: T1, 5-HT transporter (Rattus norvegicus, UniProt P31652)
# T1 construct: from tissue; host or cells: rat medulla and pons synaptosomes (P2 fraction)
# Experiment: 5-HT uptake inhibition in rat brain synaptosomes (medulla and pons)
# Assay type: biochemical
# Source text: (§1) I. Method for Determining Noradrenalin and 5-HT Uptake Inhibition:
# (§2) Synaptosomes from rat brain regions are freshly isolated for in vitro studies, as described in the publication “The isolation of nerve endings from brain” by E. G. Gray and V. P. Whittaker, J. Anatomy 96, pages 79-88, 1962. The corresponding literature description is hereby introduced as a reference and is deemed to be part of the disclosure.
# (§3) The tissue (hypothalamus for the determination of noradrenalin uptake inhibition and medulla and pons for the determination of 5-HT uptake inhibition) is homogenised in ice-cooled 0.32 M sucrose (100 mg of tissue/1 mL) in a glass homogeniser with Teflon pestle using five complete up and down strokes at 840 revolutions/minute.
# (§4) The homogenate is centrifuged at 4° C. for 10 minutes at 1000 g. After subsequent centrifugation at 17000 g for 55 minutes, the synaptosomes (P2 fraction) are obtained, which are resuspended in 0.32 M […] (0.5 mL/100 mg of original weight).
# (§5) The particular uptake is measured in a 96-well microtitre plate. The volume is 250 μl and the incubation proceeds at room temperature (approx. 20-25° C.) under an O2 atmosphere.
# (§6) The incubation time is 7.5 minutes for [^3H]-NA and 5 minutes for [^3H]-5-HT.
# (§7) The 96 samples are then filtered through a Unifilter GF/B microtitre plate (Packard) and washed with 200 mL of incubated buffer using a “Brabdel MPXRI-96T Cell-Harvester”. The Unifilter GF/B plate is dried for 1 hour at 55° C. The plate is then sealed with a Back seal (Packard) and 35 μl of scintillation fluid are added per well (Ultima Gold, Packard). After sealing with a top seal (Packard) and establishing an equilibrium (around 5 hours), radioactivity is determined in a “Trilux 1450 Microbeta” (Wallac).
# (§8) The quantity of protein used in the above determination corresponds to the values known from the literature, as for example described in “Protein measurement with the folin phenol reagent”, Lowry et al., J. Biol. Chem., 193, 265-275, 1951.
# (§9) A detailed description of the method may additionally be found in the literature, for example in M. Ch. Frink, H.-H. Hennies, W. Engelberger, M. Haurand and B. Wilffert (1996) Arzneim.-Forsch./Drug Res. 46 (III), 11, 1029-1036.
# (§10) The corresponding literature descriptions are hereby introduced in each case as a reference and are deemed to be part of the present disclosure.
# (§11) The following characteristics were determined for the NA or 5-HT transporter: […]
# T1 sequence (P31652 whole entry): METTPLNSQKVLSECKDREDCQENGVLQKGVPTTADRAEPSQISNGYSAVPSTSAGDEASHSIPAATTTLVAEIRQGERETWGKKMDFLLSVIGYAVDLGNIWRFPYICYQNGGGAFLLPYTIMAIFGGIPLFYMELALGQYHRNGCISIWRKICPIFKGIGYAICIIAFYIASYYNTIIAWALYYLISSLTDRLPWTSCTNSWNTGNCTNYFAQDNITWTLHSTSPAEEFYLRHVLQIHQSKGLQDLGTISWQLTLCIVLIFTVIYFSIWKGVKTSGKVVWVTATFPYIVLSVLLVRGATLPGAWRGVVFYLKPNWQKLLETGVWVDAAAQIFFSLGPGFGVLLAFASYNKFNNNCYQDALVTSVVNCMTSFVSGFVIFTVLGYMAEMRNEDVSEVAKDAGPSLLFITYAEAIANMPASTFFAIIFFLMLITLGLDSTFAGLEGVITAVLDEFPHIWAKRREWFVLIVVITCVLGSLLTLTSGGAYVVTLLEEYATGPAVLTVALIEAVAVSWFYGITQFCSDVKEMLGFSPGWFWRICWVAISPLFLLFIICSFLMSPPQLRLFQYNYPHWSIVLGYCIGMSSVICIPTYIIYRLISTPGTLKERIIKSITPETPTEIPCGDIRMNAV
row,Structure (SMILES),inhibition at 1 µM
1,"O=C(NC1CCc2nc(NC(=O)c3cccs3)ncc2C1)c1cc(F)cc(F)c1 (stereo not shown) [Example 97, thiophene-2-carboxylic acid [6-(3,5-difluoro-benzoylamino)-5,6,7,8-tetrahydro-quinazolin-2-yl]-amide]",30%
2,"CC1(C)C2CCC1(CS(=O)(=O)N1CCc3nc(NC(=O)c4cccc(F)c4)ncc3C1)C(=O)C2 (stereo not shown) [Example 102, N-[6-(7,7-dimethyl-2-oxo-bicyclo[2.2.1]hept-1-ylmethanesulfonyl)-5,6,7,8-tetrahydro-pyrido[4,3-d]pyrimidin-2-yl]-3-fluoro-benzamide]",63%
3,"O=C(Nc1ncc2c(n1)CCN(C(=O)c1cc(F)cc3c1OCOC3)C2)c1ccccc1C(F)(F)F [Example 103, N-[6-(6-fluoro-4H-benzo[1,3]dioxin-8-carbonyl)-5,6,7,8-tetrahydro-pyrido[4,3-d]pyrimidin-2-yl]-2-trifluoromethyl-benzamide]",65%
4,"Cc1ccc(C(=O)Nc2ncc3c(n2)CCN(C(=O)c2ccc(SC(F)(F)F)cc2)C3)cc1 [Example 148, 4-methyl-N-[6-(4-trifluoromethylsulfanyl-benzoyl)-5,6,7,8-tetrahydro-pyrido[4,3-d]pyrimidin-2-yl]-benzamide]",32%
5,"CC(C)(C)OC(=O)NCCC(=O)NC1CCc2nc(NC(=O)c3cccs3)ncc2C1 (stereo not shown) [Example 149, (2-{2-[(thiophene-2-carbonyl)-amino]-5,6,7,8-tetrahydro-quinazolin-6-ylcarbamoyl}-ethyl)-carbamic acid tert-butyl ester]",32%
6,"Cc1ccc([N+](=O)[O-])cc1S(=O)(=O)N1CCc2nc(NC(=O)c3ccccc3F)ncc2C1 [Example 150, 2-fluoro-N-[6-(2-methyl-5-nitro-benzenesulfonyl)-5,6,7,8-tetrahydro-pyrido[4,3-d]pyrimidin-2-yl]-benzamide]",54%
7,"CCCS(=O)(=O)NC1CCc2nc(NC(=O)c3ccc(F)cc3)ncc2C1 (stereo not shown) [Example 160, 4-fluoro-N-[6-(propane-1-sulfonylamino)-5,6,7,8-tetrahydro-quinazolin-2-yl]-benzamide]",40%
8,"CCCC(=O)Nc1ncc2c(n1)CCC(NS(=O)(=O)CC13CCC(CC1=O)C3(C)C)C2 (stereo not shown) [Example 162, N-[6-(7,7-dimethyl-2-oxo-bicyclo[2.2.1]hept-1-ylmethanesulfonylamino)-5,6,7,8-tetrahydro-quinazolin-2-yl]-butyramide]",29%
9,"O=C(Nc1ncc2c(n1)CCC(NS(=O)(=O)Cc1ccccc1)C2)c1cccs1 (stereo not shown) [Example 165, thiophene-2-carboxylic acid (6-phenylmethanesulfonylamino-5,6,7,8-tetrahydro-quinazolin-2-yl)-amide]",35%
10,"CCCC(=O)Nc1ncc2c(n1)CCC(NS(=O)(=O)c1ccc(C(C)(C)CC)cc1)C2 (stereo not shown) [Example 167, N-{6-[4-(1,1-dimethyl-propyl)-benzenesulfonylamino]-5,6,7,8-tetrahydro-quinazolin-2-yl}-butyramide]",32%
11,"CCN(CC)C(=O)CCC(=O)N1CCc2nc(NC(=O)c3cc(Cl)cc(Cl)c3)ncc2C1 [Example 171, 3,5-dichloro-N-[6-(3-diethylcarbamoyl-propionyl)-5,6,7,8-tetrahydro-pyrido[4,3-d]pyrimidin-2-yl]-benzamide]",32%
12,"CCc1ccc(C(=O)Nc2ncc3c(n2)CCN(C(=O)c2ccc4ncccc4c2)C3)cc1 [Example 173, 4-ethyl-N-[6-(quinoline-6-carbonyl)-5,6,7,8-tetrahydro-pyrido[4,3-d]pyrimidin-2-yl]-benzamide]",69%

# Biological target: T2, NA transporter (Rattus norvegicus, UniProt Q63380)
# T2 construct: from tissue; host or cells: rat hypothalamus synaptosomes (P2 fraction)
# Experiment: Noradrenalin uptake inhibition in rat brain synaptosomes (hypothalamus)
# Assay type: biochemical
# Source text: as §1, §2, §3, §4, §5, §6, §7, §8, §9, §10, §11
# T2 sequence (Q63380 1-617): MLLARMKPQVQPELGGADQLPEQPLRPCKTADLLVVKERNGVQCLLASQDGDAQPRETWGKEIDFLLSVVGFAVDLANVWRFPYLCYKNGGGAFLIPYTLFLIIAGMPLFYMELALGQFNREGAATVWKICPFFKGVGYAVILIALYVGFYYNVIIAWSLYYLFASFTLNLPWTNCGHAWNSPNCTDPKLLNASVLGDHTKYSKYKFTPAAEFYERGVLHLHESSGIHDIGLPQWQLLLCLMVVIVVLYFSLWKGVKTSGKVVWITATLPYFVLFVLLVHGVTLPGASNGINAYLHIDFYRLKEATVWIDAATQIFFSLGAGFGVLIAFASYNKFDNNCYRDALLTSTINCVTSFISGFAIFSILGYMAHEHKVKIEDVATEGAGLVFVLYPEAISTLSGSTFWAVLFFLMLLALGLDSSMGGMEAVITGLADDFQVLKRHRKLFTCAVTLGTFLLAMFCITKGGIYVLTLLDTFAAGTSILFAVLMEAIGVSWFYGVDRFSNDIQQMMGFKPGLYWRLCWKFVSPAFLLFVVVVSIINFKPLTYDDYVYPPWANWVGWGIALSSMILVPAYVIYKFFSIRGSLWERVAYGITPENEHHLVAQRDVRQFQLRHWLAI
row,Structure (SMILES),inhibition at 10 µM
1,"O=C(Nc1ncc2c(n1)CCN(S(=O)(=O)c1cccs1)C2)c1ccc(F)c(F)c1 [Example 72, 3,4-difluoro-N-[6-(thiophene-2-sulfonyl)-5,6,7,8-tetrahydro-pyrido[4,3-d]pyrimidin-2-yl]-benzamide]",41%
